Experimental data from patent US20160151380A1, “THERAPIES FOR DISEASES CAUSED BY ARTHROPOD-BORNE PARASITES” (THE REGENTS OF THE UNIVERSITY OF CALIFORNIA, priority 2013, published 2016).
Entries after “also recorded” stand apart in the source; their conditions may differ.

Key:
JNK3 = JNK3 (Homo sapiens, UniProt P53779); conditions: cited from earlier work
MAPK14 p38 = MAPK14 p38 (Homo sapiens, UniProt Q16539); conditions: cited from earlier work
JNK1 = JNK1 (Homo sapiens, UniProt P45983); conditions: cited from earlier work
PKCepsilon = biological target: T1, PKCepsilon (Homo sapiens, UniProt Q02156); conditions: PKCepsilon; cited from earlier work
T1 sequence (Q02156 1-737): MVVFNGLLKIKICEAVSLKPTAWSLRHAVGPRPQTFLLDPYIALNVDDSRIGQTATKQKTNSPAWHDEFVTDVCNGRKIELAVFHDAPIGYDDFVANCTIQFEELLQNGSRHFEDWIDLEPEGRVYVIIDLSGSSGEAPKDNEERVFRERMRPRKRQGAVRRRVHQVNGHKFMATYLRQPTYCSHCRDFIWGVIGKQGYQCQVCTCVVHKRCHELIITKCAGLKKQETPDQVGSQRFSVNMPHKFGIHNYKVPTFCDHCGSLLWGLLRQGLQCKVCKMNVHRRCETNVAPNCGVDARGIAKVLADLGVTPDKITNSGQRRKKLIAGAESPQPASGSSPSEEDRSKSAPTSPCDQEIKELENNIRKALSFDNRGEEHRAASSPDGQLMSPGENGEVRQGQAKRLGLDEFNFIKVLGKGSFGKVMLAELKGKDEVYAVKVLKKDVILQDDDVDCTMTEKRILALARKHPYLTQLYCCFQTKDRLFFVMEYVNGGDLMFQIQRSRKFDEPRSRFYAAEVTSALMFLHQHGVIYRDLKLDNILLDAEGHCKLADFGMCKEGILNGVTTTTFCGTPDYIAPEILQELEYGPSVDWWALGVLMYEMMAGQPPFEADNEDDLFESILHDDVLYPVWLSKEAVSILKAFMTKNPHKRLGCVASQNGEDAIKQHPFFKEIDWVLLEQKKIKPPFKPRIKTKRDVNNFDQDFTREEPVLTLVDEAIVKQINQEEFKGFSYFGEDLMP

Plasmodium falciparum [1] = test: P. falciparum growth in vitro (flow cytometry); type: cell-based; conditions: 1 μM or 10 μM, 48 h, relative to vehicle control
anti-parasite genes = test: Midgut expression of anti-parasite/immune genes in A. stephensi (quantitative PCR); type: in vivo, Anopheles stephensi; conditions: fed killed lysate of P. falciparum with BIRB 796; 6 h post-feeding
A. stephensi = test: Mosquito lifespan, A. stephensi; type: in vivo, Anopheles stephensi; conditions: 1 μM or 10 μM daily in water or once weekly via bloodmeal
A. freeborni = test: Mosquito lifespan, A. freeborni; type: in vivo; conditions: 1 μM or 10 μM daily in water or once weekly via bloodmeal
[2] = system: Anopheles stephensi p38 MAPK; test: MK2 phosphorylation in LPS-stimulated ASE cells (western blot); type: cell-based; conditions: ASE cells pre-incubated with 10 μM inhibitor, 2 h later 1 μg/ml LPS
Plasmodium falciparum [3] = test: P. falciparum development in A. stephensi after supplemented bloodmeal (oocysts); type: in vivo; conditions: 10 μM in bloodmeal
Protocol: Midguts were dissected and oocysts were counted at 10 days following infection. Dots in FIG. 3A and FIG. 3C represent oocyst numbers in one midgut, while percentage positive midguts or percentage of midguts with at least one oocyst are represented as means in FIG. 3B and FIG. 3D. Mean oocysts per midgut (lines, numbers on graph) were analyzed by ANOVA (alpha=0.05) for overall significance and by Student-Neuman-Keuls for pairwise comparisons using Graphpad Prism version 4.0 (San Diego, Calif.). Prevalences of mosquito infection (indicated on graph) were analyzed by chi-square (alpha=0.05).

Sequence of JNK3 (P53779 whole entry, species assumed): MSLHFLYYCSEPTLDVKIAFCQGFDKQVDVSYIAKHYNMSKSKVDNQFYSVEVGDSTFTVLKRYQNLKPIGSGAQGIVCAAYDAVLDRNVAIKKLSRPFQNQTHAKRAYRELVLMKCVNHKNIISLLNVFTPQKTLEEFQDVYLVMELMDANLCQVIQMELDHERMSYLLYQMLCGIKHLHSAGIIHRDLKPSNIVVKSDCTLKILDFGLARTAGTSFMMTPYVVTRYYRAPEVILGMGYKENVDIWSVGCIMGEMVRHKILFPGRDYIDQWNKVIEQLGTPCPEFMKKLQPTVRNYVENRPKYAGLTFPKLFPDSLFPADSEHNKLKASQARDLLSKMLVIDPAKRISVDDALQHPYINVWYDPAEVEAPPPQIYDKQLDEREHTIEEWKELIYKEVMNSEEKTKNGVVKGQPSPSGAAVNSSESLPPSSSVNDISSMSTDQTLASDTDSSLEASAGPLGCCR
Sequence of MAPK14 p38 (Q16539 whole entry): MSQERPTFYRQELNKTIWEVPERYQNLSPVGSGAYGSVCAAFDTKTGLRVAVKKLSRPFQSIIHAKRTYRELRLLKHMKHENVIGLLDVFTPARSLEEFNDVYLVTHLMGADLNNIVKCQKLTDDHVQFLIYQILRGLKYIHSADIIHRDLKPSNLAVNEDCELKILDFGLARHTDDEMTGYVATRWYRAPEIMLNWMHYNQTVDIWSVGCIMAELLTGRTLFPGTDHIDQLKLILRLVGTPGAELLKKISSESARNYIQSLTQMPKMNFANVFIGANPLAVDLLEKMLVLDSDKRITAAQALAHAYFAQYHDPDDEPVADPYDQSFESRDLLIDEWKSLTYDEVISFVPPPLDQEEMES
Sequence of JNK1 (P45983 whole entry, species assumed): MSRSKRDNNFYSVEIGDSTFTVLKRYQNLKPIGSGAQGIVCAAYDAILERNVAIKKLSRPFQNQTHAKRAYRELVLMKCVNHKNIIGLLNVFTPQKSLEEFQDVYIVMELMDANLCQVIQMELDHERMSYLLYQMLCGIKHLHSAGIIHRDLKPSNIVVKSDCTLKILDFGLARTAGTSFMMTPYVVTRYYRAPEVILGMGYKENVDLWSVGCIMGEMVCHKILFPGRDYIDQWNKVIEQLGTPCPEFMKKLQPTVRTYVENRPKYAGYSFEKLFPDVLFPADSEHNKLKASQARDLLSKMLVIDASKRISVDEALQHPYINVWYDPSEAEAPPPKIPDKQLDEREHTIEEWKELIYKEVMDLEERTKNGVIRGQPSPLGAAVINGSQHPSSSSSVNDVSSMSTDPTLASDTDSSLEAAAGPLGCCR

**Q.** With COc1ccc(N(C(=O)Nc2c(C)cccc2C)c2cc(Nc3ccc(N4CCN(C)CC4)cc3)ncn2)c(OC)c1 [HG-9-91-01] as the compound, how does the IC50 (JNK3) read?
**A.** The IC50 was less than 800 nM.

**Q.** What about the IC50 (MAPK14 p38) of the same compound?
**A.** Its IC50 is less than 600 nM.

**Q.** Which Kd (JNK1) does the source give for C=CC(=O)Nc1cccc(Oc2nc(Nc3ccc(N4CCN(C)CC4)cc3OC)ncc2Cl)c1 [WZ4002] here?
**A.** The Kd was greater than 1000 nM.

**Q.** And the Kd (JNK3)?
**A.** Its Kd is greater than 1000 nM.

**Q.** And the Kd (PKCepsilon)?
**A.** Its Kd is greater than 1000 nM.

**Q.** What does the source list for Cc1ccc(C(=O)Nc2cccc(C(F)(F)F)c2)cc1-c1ccc2nc(NCCN3CCOCC3)ncc2c1 [AMG-47a]?
**A.** IC50 (JNK3): 145 nM; IC50 (MAPK14 p38): 3 nM

**Q.** Which “P. falciparum growth in vitro (parasitemia)” value (Plasmodium falciparum [1]) does the source give for Cc1ccc(-n2nc(C(C)(C)C)cc2NC(=O)Nc2ccc(OCCN3CCOCC3)c3ccccc23)cc1 [BIRB 796, 1-[5-tert-butyl-2-(4-methylphenyl)pyrazol-3-yl]-3-[4-(2-morpholin-4-ylethoxy)naphthalen-1-yl]urea] here?
**A.** Its value is “Neither inhibitor significantly altered parasite growth; also recorded: no activity”.

**Q.** And the “immune gene expression levels in midgut” value (anti-parasite genes)?
**A.** Its value is “significantly different from controls”.

**Q.** For O=C(Nc1c[nH]nc1-c1nc2cc(CN3CCOCC3)ccc2[nH]1)NC1CC1 [AT9283], which IC50 (JNK1) is on record?
**A.** Its IC50 is greater than 100 nM.

**Q.** And the IC50 (JNK3)?
**A.** Its IC50 is greater than 100 nM.

**Q.** And the IC50 (PKCepsilon)?
**A.** The IC50 was greater than 100 nM.

**Q.** What about the IC50 (MAPK14 p38) of the same compound?
**A.** The IC50 was greater than 100 nM.

**Q.** What does the source list for C=CC(=O)Nc1cccc(Oc2nc(Nc3ccc(N4CCN(C)CC4)cc3)ncc2Cl)c1 [WZ3146]?
**A.** Kd (JNK1): > 1000 nM; Kd (JNK3): > 1000 nM; Kd (PKCepsilon): > 1000 nM

**Q.** For Oc1c2ccccc2c2c3c(cccc13)N=N2 [SP600125], which impact on lifespan (A. stephensi) is on record?
**A.** The impact on lifespan was “no negative impact”.

**Q.** What about the impact on lifespan (A. freeborni) of the same compound?
**A.** The impact on lifespan was “no negative impact”.

**Q.** Which IC50 (JNK1) does the source give for O=C(O)[C@]1(Cc2cccc(Nc3nccs3)n2)CC[C@@H](Oc2cccc(Cl)c2F)CC1 [MK5108] here?
**A.** The IC50 was greater than 1000 nM.

**Q.** What about the IC50 (JNK3) of the same compound?
**A.** The IC50 was greater than 100 nM.

**Q.** And the IC50 (PKCepsilon)?
**A.** The IC50 was greater than 1000 nM.

**Q.** Which results are given for C[S+]([O-])c1ccc(-c2nc(-c3ccc(F)cc3)c(-c3ccncc3)[nH]2)cc1 (stereo not drawn) [SB203580, 4-[4-(4-fluorophenyl)-2-(4-methylsulfinylphenyl)-1H-imidazol-5-yl]pyridine]?
**A.** P. falciparum growth in vitro (parasitemia) (Plasmodium falciparum [1]): Neither inhibitor significantly altered parasite growth; also recorded: no such effects; p-MK2 levels [2]: undetectable; infection prevalence (Plasmodium falciparum [3]; 10 days): significantly reduced; P. falciparum oocysts/midgut (Plasmodium falciparum [3]; oocysts counted at 10 days): significantly reduced; p38 MAPK activity in the mosquito in vivo (mosquito p38 MAPK): significantly reduced

**Q.** With CCCC(=O)NC1=NC2C(N=CN2C2OC3OP(=O)(O)OC3C2OC(=O)CCC)C(=O)N1 (stereo not drawn) [Kinome_3027] as the compound, how does the Ki (JNK1) read?
**A.** The Ki was 1 nM.

**Q.** What about the Ki (JNK3) of the same compound?
**A.** Its Ki is 18 nM.

**Q.** Which Kd (JNK1) does the source give for CCS(=O)(=O)Nc1ccc2c(c1)/C(=C(/Nc1ccc(CN3CCCCC3)cc1)c1ccccc1)C(=O)N2 [Hesperadin] here?
**A.** Its Kd is less than 10 nM.

**Q.** And the Kd (JNK3)?
**A.** The Kd was less than 10 nM.
